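A five-concentration, 48-hour dose response in 96-well plates underlies each endpoint, interpolated linearly between surrounding concentrations. The concentration for 50% growth inhibition is given as GI50.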 The source made the active and inactive calls. Rule as the data show it: active = GI50 up to about 1.1 µM and inactive = higher.
Experiments:
Test in all cases: DTP human tumour cell line panel, 48 h
[1] = system: UACC-257
[2] = system: HOP-62
[3] = system: IGROV-1
[4] = system: SF-539
[5] = system: U-251
[6] = system: NCI-H226
[7] = system: K562
[8] = system: HL-60
[9] = system: NCI-H522
[10] = system: Malme-3M
[11] = system: RPMI-8226
[12] = system: HT-29
[13] = system: SN12C
[14] = system: SK-MEL-2
[15] = system: SK-OV-3
[16] = system: OVCAR-8
[17] = system: SK-MEL-5
[18] = system: A498

Measured: GI50

O=c1cccccc1NCCCCCCCCCNc1cccccc1=O
inactive: [1] 2.12 µM | [2] 15.1 µM | [3] 19 µM | [4] 6.68 µM | [5] 10.6 µM | [6] 15.7 µM | [7] 3.35 µM | [8] 4.06 µM | [9] 13.9 µM | [10] 7.52 µM | [11] 4.4 µM | [12] 15.7 µM | [13] 21 µM | [14] 19 µM | [15] 33.1 µM | [16] 13.6 µM

Cc1cc(C)nc(NS(=O)(=O)c2ccc(Nc3c4ccccc4nc4c(C(=O)Nc5ccc(S(=O)(=O)N=C(N)N)cc5)cccc34)cc2)n1
inactive: [1] > 100 µM | [2] > 100 µM | [3] > 100 µM | [4] > 100 µM | [5] 98.9 µM | [7] > 100 µM | [9] > 100 µM | [10] 78.7 µM | [11] > 100 µM | [17] > 100 µM | [12] > 100 µM | [18] > 100 µM | [13] > 100 µM | [14] > 100 µM | [15] > 100 µM | [16] > 100 µM

O=C(CCC(=O)Nc1ccc(Cl)cc1)CC(=O)c1ccc(F)cc1
inactive: [1] > 100 µM | [2] > 100 µM | [3] > 100 µM | [4] > 100 µM | [6] > 100 µM | [7] > 100 µM | [8] > 100 µM | [9] > 100 µM | [10] > 100 µM | [11] > 100 µM | [12] > 100 µM | [13] > 100 µM | [14] > 100 µM | [15] > 100 µM | [16] > 100 µM

COc1ccc(/C=C\c2cc(OC)c(O[Si](C)(C)C(C)(C)C)c(OC)c2)cc1
inactive: [1] 21.7 µM | [2] > 100 µM | [3] > 100 µM | [4] 37.8 µM | [5] 19.4 µM | [6] 31.8 µM | [7] 39.1 µM | [9] 38.5 µM | [10] 34.8 µM | [11] 27.4 µM | [17] > 10 µM | [12] 15 µM | [18] 21 µM | [13] 39.1 µM | [14] 23.9 µM | [15] > 100 µM | [16] 15.6 µM

C#CCC(O)c1ccccc1C(O)CC#C (stereo not given)
inactive: [1] > 100 µM | [2] > 100 µM | [3] > 100 µM | [7] > 100 µM | [8] > 100 µM | [9] 70.1 µM | [10] 79.4 µM | [11] > 100 µM | [17] > 100 µM | [12] > 100 µM | [13] > 100 µM | [14] 62.1 µM | [15] 39.7 µM | [16] > 100 µM

O=C1C(=O)N(c2ccc(Cl)cc2)C(=O)C(=O)C1c1nc2ccccc2s1
inactive: [1] > 100 µM | [2] 42.7 µM | [3] 71 µM | [4] 74.3 µM | [5] > 100 µM | [6] > 100 µM | [7] > 100 µM | [9] > 100 µM | [10] > 100 µM | [11] > 100 µM | [17] > 100 µM | [12] > 100 µM | [13] > 100 µM | [14] > 100 µM | [15] > 100 µM | [16] > 100 µM

CCOC(=O)/C(C(=O)c1ccccc1)=C1\N[C@H](C(=O)OCC)CS1
inactive: [1] > 100 µM | [2] > 100 µM | [3] > 100 µM | [4] 10 µM | [5] > 100 µM | [6] > 100 µM | [7] > 100 µM | [8] > 100 µM | [9] > 100 µM | [10] > 100 µM | [11] > 100 µM | [17] 92.3 µM | [12] > 100 µM | [13] > 100 µM | [14] > 100 µM | [16] > 100 µM
